Data taken from ChEMBL document CHEMBL5126532, “Synthetic approaches and structural diversity of triazolylbutanols derived from voriconazole in the antifungal drug development” (Eur J Med Chem, 2022).
Values after ≈ are worked out from the molar mass of the structure shown.

Key:
[1] = Plasma protein binding in human; format: ADME, cell-free; settings: route po, read-out: PPB (converted)
Aspergillus fumigatus [2] = test: Antifungal activity against Aspergillus fumigatus assessed as inhibition of fungal growth incubated for 20 hrs; format: functional
Aspergillus fumigatus [3] = test: Antifungal activity against Aspergillus fumigatus in 96-well microplate method; format: functional
Candida albicans [4] = test: Antifungal activity against Candida albicans SANK 51486 by 96-well microplate method; format: functional
Cryptococcus neoformans = test: Antifungal activity against Cryptococcus neoformans TIMM 1855 by 96-well microplate method; format: functional
Aspergillus fumigatus [5] = test: Antifungal activity against Aspergillus fumigatus SANK 10569 by 96-well microplate method; format: functional
Aspergillus flavus = test: Antifungal activity against Aspergillus flavus SANK 18497 by 96-well microplate method; format: functional
Aspergillus = test: Antifungal activity against Aspergillus; format: functional
[6] = Water solubility of the compound at pH 7.4; format: physicochemical; settings: buffer
Nannizzia gypsea = test: Antifungal activity against Microsporum gypseum; format: functional
Cytochrome P450 3A4 = Cytochrome P450 3A4 (Homo sapiens, UniProt P08684); test: Inhibition of CYP3A4 in human hepatocyte microsomes using testosterone as substrate by LC-MS/MS analysis; format: ADME, Microsome
Aspergillus fumigatus [7] = test: In vivo antifungal activity against Aspergillus fumigatus infected in Fisher rat administered po; format: functional
Candida albicans [8] = test: In vivo antifungal activity against Candida albicans ATCC48130 infected in Fisher rat administered IV; format: functional
Aspergillus fumigatus [9] = test: In vivo antifungal activity against Aspergillus fumigatus infected in Fisher rat administered IV; format: functional
Candida albicans [10] = test: In vivo antifungal activity against Candida albicans ATCC48130 infected in Fisher rat administered po; format: functional
Pichia kudriavzevii = test: Antifungal activity against Candida krusei; format: functional
Candida parapsilosis = test: Antifungal activity against Candida parapsilosis; format: functional; settings: Lodderomyces parapsilosis
Candida tropicalis = test: Antifungal activity against Candida tropicalis; format: functional
Candida albicans [11] = test: Antifungal activity against Candida albicans; format: functional
Nakaseomyces glabratus = test: Antifungal activity against Candida glabrata; format: functional
[12] = Prodrug conversion in rat plasma assessed as half life; format: ADME, cell-free
Candida albicans [13] = test: In vivo antifungal activity against Candida albicans infected in CDF1 mouse treated po 4 hrs after injection twice daily for 2 days measured on day 10; format: functional; settings: 48 h, time 2 day
Aspergillus fumigatus [14] = test: Antifungal activity against Aspergillus fumigatus; format: functional
Candida albicans [15] = test: In vivo antifungal activity against Candida albicans infected in CDF1 mouse treated po or iv immediately after infection measured on day 7; format: functional; settings: 168 h, time 7 day
Candida albicans [16] = test: In vivo antifungal activity against Candida albicans infected in CDF1 mouse treated po or iv 2 hrs after infection twice daily for 2 days measured on day 10; format: functional; settings: 240 h, time 10 day

Chain of Cytochrome P450 3A4 (P08684 whole entry): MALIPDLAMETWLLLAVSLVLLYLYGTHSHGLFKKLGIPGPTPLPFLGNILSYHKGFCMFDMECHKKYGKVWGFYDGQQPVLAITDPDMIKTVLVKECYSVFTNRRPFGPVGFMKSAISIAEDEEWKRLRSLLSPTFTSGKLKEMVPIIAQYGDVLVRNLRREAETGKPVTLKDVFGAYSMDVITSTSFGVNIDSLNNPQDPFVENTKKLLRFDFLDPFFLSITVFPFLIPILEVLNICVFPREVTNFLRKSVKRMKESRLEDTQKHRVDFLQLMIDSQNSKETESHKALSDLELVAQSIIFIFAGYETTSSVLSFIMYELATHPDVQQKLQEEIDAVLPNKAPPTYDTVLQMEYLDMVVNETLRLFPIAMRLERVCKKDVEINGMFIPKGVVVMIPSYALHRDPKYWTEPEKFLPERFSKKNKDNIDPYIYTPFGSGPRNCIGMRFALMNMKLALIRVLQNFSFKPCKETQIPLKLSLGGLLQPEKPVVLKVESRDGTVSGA

C=C1CCN([C@H](C)[C@](O)(Cn2cncn2)c2ccc(F)cc2F)CC1 [EFINACONAZOLE]
fraction unbound [1]: 0.04

C[C@@H](N1Cc2cc(Br)sc2C1=O)[C@](O)(Cn1cncn1)c1ccc(F)cc1F
MIC (Aspergillus fumigatus [2]): 0.25 µg/mL (≈ 0.533 µM)

C[C@@H](N1Cc2sc(-c3cncnc3)nc2C1=O)[C@](O)(Cn1cncn1)c1ccc(F)cc1F
MIC80 (Aspergillus fumigatus [3]): 4 µg/mL (≈ 8.52 µM)

C[C@@H](S[C@H]1CO[C@H](/C=C/C=C/c2ccc(C#N)cc2F)OC1)[C@](O)(Cn1cncn1)c1ccc(F)cc1F [EMBECONAZOLE]
MIC (Candida albicans [4]): ≤ 0.008 µg/mL | MIC (Cryptococcus neoformans): ≤ 0.008 µg/mL | MIC (Aspergillus fumigatus [5]): ≤ 0.008 µg/mL | MIC (Aspergillus flavus): ≤ 0.008 µg/mL | MIC (Aspergillus): < 0.5 µg/mL

C[C@@H](c1nc(-c2ccc(C#N)cc2)cs1)[C@](O)(Cn1cncn1)c1ccc(F)cc1F [RAVUCONAZOLE]
solubility [6]: 600 µg/mL (≈ 1370 µM) | MIC80 (Nannizzia gypsea): 1 µg/mL (≈ 2.29 µM) | IC50 (Cytochrome P450 3A4): 1010 nM

CNCC(=O)Oc1c(C)cc(C[n+]2cnn(C[C@](O)(c3ccc(F)cc3F)[C@@H](C)c3nc(-c4ccc(C#N)cc4)cs3)c2)cc1C
ED50 (Aspergillus fumigatus [7]): 19 µmol/kg | ED50 (Candida albicans [8]): 4.6 µmol/kg | ED50 (Aspergillus fumigatus [9]): 17 µmol/kg | ED50 (Candida albicans [10]): 4.7 µmol/kg

C[C@@H](C[C@H]1CO[C@H](/C=C/C=C/c2ccc(C(F)(F)F)cc2)OC1)[C@](O)(Cn1cncn1)c1ccc(F)cc1F
MIC (Aspergillus): ≤ 0.5 µg/mL

COc1ccc(-c2nc3c(s2)CN([C@H](C)[C@](O)(Cn2cncn2)c2ccc(F)cc2F)C3=O)cn1
MIC80 (Aspergillus fumigatus [3]): 4 µg/mL (≈ 8.02 µM)

C[C@H](n1nnnc1CCN1CCN(c2cccc(C(F)(F)F)c2)CC1)[C@](O)(Cn1cncn1)c1ccc(F)cc1F
MIC (Pichia kudriavzevii): 0.5 µg/mL (≈ 0.866 µM) | MIC (Candida parapsilosis): 0.25 µg/mL (≈ 0.433 µM) | MIC (Candida tropicalis): 0.25 µg/mL (≈ 0.433 µM) | MIC (Candida albicans [11]): 0.12 µg/mL (≈ 0.208 µM) | MIC (Nakaseomyces glabratus): 0.5 µg/mL (≈ 0.866 µM)

CC(=O)OCc1ccccc1N(C)C(=O)OC[n+]1cnn(C[C@](O)(c2ccc(F)cc2F)[C@@H](C)c2nc(-c3ccc(C#N)cc3)cs2)c1.[Cl-]
t1/2 [12]: 13 min

OC(Cn1cncn1)(Cn1cncn1)c1ccc(F)cc1F [FLUCONAZOLE]
MIC (Candida albicans [4]): 0.25 µg/mL (≈ 0.816 µM) | MIC (Pichia kudriavzevii): 0.12 µg/mL (≈ 0.392 µM) | MIC (Candida parapsilosis): 0.12 µg/mL (≈ 0.392 µM) | MIC (Candida tropicalis): 0.12 µg/mL (≈ 0.392 µM) | ED50 (Candida albicans [13]): 0.22 mg/kg | MIC (Aspergillus fumigatus [14]): > 64 µg/mL | MIC (Candida albicans [11]): 0.12 µg/mL (≈ 0.392 µM) | ED50 (Candida albicans [15]): 0.22 mg/kg | ED50 (Candida albicans [16]): 179 mg/kg | MIC (Nakaseomyces glabratus): 0.12 µg/mL (≈ 0.392 µM) | MIC (Cryptococcus neoformans): 0.25 µg/mL (≈ 0.816 µM) | MIC (Aspergillus fumigatus [5]): 0.25 µg/mL (≈ 0.816 µM) | MIC (Nannizzia gypsea): 32 µg/mL (≈ 104 µM) | MIC (Aspergillus flavus): 0.25 µg/mL (≈ 0.816 µM)
